Where two headings read alike, the source gives them in different places.
Columns and labels:
VvelCSP1 = VvelCSP1 (Vespa velutina auraria, UniProt A0A384ZVP9); assay: Fluorescence competitive binding assay (1-NPN probe) with VvelCSP1; details: for Ki: VvelCSP1
Procedure: (§1) Fluorescence competitive binding assays were employed to characterize the interactions between VvelCSPs and 13 volatiles shared between the elaiosomes of S. tuberosa and the cuticular hydrocarbons of honeybees. These tests were performed in 1 cm path length quartz cuvettes with an excitation wavelength of 337 nm and emission wavelength scanning from 400–450 nm. The volatiles and the fluorescent probe 1-NPN (1-N-phenylnaphthylamine), listed in Supplementary Table S2, were dissolved in methanol to prepare 100 mM stock solutions, which were then diluted to 1 mM working solutions [25]. To remove any potential endogenous ligands, the purified proteins were delipidated by three washes with an equal volume of dichloromethane (1:1 v/v). Each wash involved a 10-min incubation, and the process was followed by evaporation of the residual solvent under a gentle stream of nitrogen. Purified CSPs were resuspended in 20 mM Tris-HCl buffer (pH 7.5) to a final concentration of 2 μM. Binding parameters for CSP-NPN were determined by titration: 2 mL of CSP solution (2 μM) was titrated with 1-NPN (final concentrations: 2−24 μM). Maximum fluorescence intensity was recorded, and the dissociation constant was calculated. […] After incubation in the dark for 2 min, fluorescence quenching was measured. Half-maximal inhibitory concentration (IC50) values for volatiles were calculated from the competition curves, and their binding constants (Ki) were subsequently derived. The presented data, including IC50 and Ki values, originate from a single experiment under uniform conditions to ensure comparability (Supplementary Table S3).

VvelCSP4 = assay: Fluorescence competitive binding assay (1-NPN probe) with VvelCSP4; parameters: species or system Vespa velutina auraria
Procedure: as §1

[1] = VvelCSP4 2 μM, 1-NPN 1 μM, Tris-HCl pH 7.5, single experiment, read-out: IC50 (ligand concentration displacing 50% of the fluorescence intensity of the CSPs/NPN complex)
[2] = VvelCSP4, derived from IC50, read-out: Ki (dissociation constant)
[3] = VvelCSP4, read-out: IC50 (μM), no binding symbol
[4] = VvelCSP4, read-out: Ki (μM), no binding symbol

Sequence of VvelCSP1 (A0A384ZVP9 entry or part of it): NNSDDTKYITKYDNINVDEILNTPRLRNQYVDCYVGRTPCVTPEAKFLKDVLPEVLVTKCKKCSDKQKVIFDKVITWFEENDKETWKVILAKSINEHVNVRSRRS

Row | SMILES | Raw fluorescence intensity (VvelCSP1; VvelCSP1, chemical 0.5 μM) | Raw fluorescence intensity (VvelCSP1; VvelCSP1, chemical 1 μM) | Raw fluorescence intensity (VvelCSP1; VvelCSP1, chemical 2 μM) | Raw fluorescence intensity (VvelCSP1; VvelCSP1, chemical 4 μM) | Raw fluorescence intensity (VvelCSP1; VvelCSP1, chemical 6 μM) | Raw fluorescence intensity (VvelCSP1; VvelCSP1, chemical 8 μM) | Raw fluorescence intensity (VvelCSP1; VvelCSP1, chemical 12 μM) | Raw fluorescence intensity (VvelCSP1; VvelCSP1, chemical 16 μM) | IC50 (VvelCSP4; [1]) [µM] | Raw fluorescence intensity (VvelCSP4; VvelCSP4, chemical 0.5 μM) | Raw fluorescence intensity (VvelCSP4; VvelCSP4, chemical 1 μM) | Raw fluorescence intensity (VvelCSP4; VvelCSP4, chemical 2 μM) | Raw fluorescence intensity (VvelCSP4; VvelCSP4, chemical 4 μM) | Raw fluorescence intensity (VvelCSP4; VvelCSP4, chemical 6 μM) | Raw fluorescence intensity (VvelCSP4; VvelCSP4, chemical 8 μM) | Raw fluorescence intensity (VvelCSP4; VvelCSP4, chemical 12 μM) | Raw fluorescence intensity (VvelCSP4; VvelCSP4, chemical 16 μM) | Ki (VvelCSP4; [2]) [µM] | IC50 (VvelCSP4; [3]) [µM] | Ki (VvelCSP4; [4]) [µM] | other results
1 | CCCCCCCCCCCCCCCCCCCCCC [Docosane] | 246.77 | 231.89 | 197.76 | 171.56 | 161.14 | 158.53 | 154.82 | 153.17 | 3.68 | 205.93 | 179.89 | 159.86 | 127.80 | 108.85 | 102.51 | 95.75 | 91.32 | 2.73 | – | – | –
2 | CCCCCCCCCCCCCCCCCCCC [Eicosane] | 246.85 | 234.09 | 206.27 | 199.36 | 183.72 | 175.07 | 172.10 | 170.22 | – | 192.14 | 182.38 | 164.23 | 154.96 | 139.00 | 133.35 | 128.24 | 125.62 | – | > 24 | > 18 | –
3 | CCCCCCCCCCCCCCCCCCCCC [Heneicosane] | 190.87 | 168.28 | 152.31 | 138.38 | 134.83 | 130.66 | 127.58 | 125.86 | 19.8 | 252.45 | 226.44 | 209.89 | 178.34 | 161.57 | 149.85 | 143.60 | 140.19 | 14.7 | – | – | –
4 | CCCCCCCCCCCCCCCCCCCCCCCCCCC [Heptacosane] | 222.51 | 205.55 | 159.00 | 136.99 | 130.11 | 123.81 | 117.37 | 115.92 | 6.2 | 218.17 | 194.71 | 172.10 | 154.91 | 140.68 | 130.60 | 128.65 | 125.52 | 4.6 | – | – | –
5 | CCCCCCCCCCCCCCCCCCCCCCCCCC [Hexacosane] | 189.29 | 171.76 | 135.79 | 114.55 | 103.35 | 99.94 | 93.92 | 89.96 | – | 213.35 | 194.71 | 177.42 | 169.19 | 147.61 | 141.30 | 136.25 | 133.13 | – | > 24 | > 18 | –
6 | CCCCCCCCCCCCCCCCCCC [Nanadecane] | 223.11 | 209.38 | 178.27 | 171.35 | 158.50 | 148.00 | 140.37 | 133.91 | 10.4 | 238.31 | 207.32 | 185.38 | 167.28 | 153.91 | 144.81 | 135.70 | 129.34 | 7.89 | – | – | IC50 (VvelCSP1; VvelCSP1 2 μM, 1-NPN 1 μM, Tris-HCl pH 7.5, single experiment, read-out: IC50 (ligand concentration displacing 50% of the fluorescence intensity of the CSPs/NPN complex)): 18.2 µM; Ki (VvelCSP1; derived from IC50, read-out: Ki (dissociation constant)): 14.5 µM; Ki (VvelCSP1; read-out: Binding affinity class (by Ki)): > 10 µM; Ki (VvelCSP4; VvelCSP4, read-out: Binding affinity class (by Ki)): 5 to 10 µM
7 | CCCCCCCCCCCCCCCCCCCCCCCCCCCCC [Nonacosane] | 215.85 | 197.03 | 181.17 | 168.33 | 152.52 | 138.03 | 127.11 | 120.08 | 20.4 | 212.97 | 196.97 | 179.08 | 164.16 | 151.46 | 136.04 | 129.53 | 125.16 | 15.1 | – | – | –
8 | CCCCCCCCCCCCCCCCCCCCCCCCCCCC [Octacosane] | 200.77 | 192.40 | 162.06 | 146.64 | 135.22 | 131.33 | 127.20 | 124.62 | – | 227.35 | 213.99 | 194.19 | 182.58 | 174.55 | 162.14 | 156.02 | 154.11 | – | > 24 | > 18 | –
9 | CCCCCCCCCCCCCCCCCCCCCCCCC [Pentacosane] | 242.52 | 219.99 | 165.83 | 143.30 | 135.17 | 129.88 | 124.70 | 122.60 | 4.65 | 211.45 | 182.28 | 160.44 | 139.39 | 119.91 | 111.74 | 105.45 | 103.82 | 3.49 | – | – | –
10 | CCCCCCCCCCCCCCCCCCCCCCCC [Tetracosane] | 225.09 | 200.88 | 176.79 | 157.66 | 144.05 | 131.64 | 122.98 | 117.42 | 18.9 | 216.50 | 198.86 | 178.28 | 160.59 | 153.54 | 132.96 | 126.27 | 122.27 | 14.2 | – | – | –
11 | CCCCCCCCCCCCCCCCCCCCCCCCCCCCCC [Triacontane] | 211.63 | 196.09 | 180.51 | 166.41 | 152.93 | 143.85 | 139.39 | 137.14 | – | 216.07 | 200.62 | 183.85 | 171.56 | 162.42 | 148.29 | 139.28 | 135.24 | – | > 24 | > 18 | –

From PMC12652730, “The Chemoreceptive Molecular Mechanism Underlying CSP-Mediated Recognition of Seed Elaiosome from Stemona tuberosa by Hornets” (Genes, 2025)
